This is an account of results in patent publication US20250011289A1, “1H-BENZO[B]AZEPIN-2(3H)-ONE COMPOUNDS, COMPOSITIONS AND METHODS OF TREATING CANCER” (Chengdu Anticancer Bioscience, Ltd., priority 2021, published 2025).

Test [1] relates to RPE-Neo or RPE-MYC or RPE-MYC expressing an EGFP-Histone 2B fusion protein. The test can be described thus: Phenotypic screening assay (arrest in mitosis or change in DNA content, IN-Cell Analyzer). Type of test: cell-based. Particulars: compounds at 20 nM to 20 μM, analysed 24, 48 or 72 hours after initiation of treatment. A digest of the protocol:
(§1)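 RPE-Neo, RPE-MYC or RPE-MYC EGFP-Histone 2B cells exposed to compound at 20 nM to 20 μM, 18-24 h after plating. Mitotic arrest or DNA-content change imaged at 24, 48 or 72 h; proliferation by MTT. Values binned A (1 nM–1.0 μM), B (>1.00–10.0 μM), C (>10.0–30.0 μM), D (>30.0–<1000 μM).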

The subject of another test is RPE-Neo or RPE-MYC cells. The test can be described thus: MTT assay of cellular proliferation. The test is classed as cell-based. Particulars: compounds at 20 nM to 20 μM; read-out: Min. Effective conc. for Proliferative arrest (>50%). In outline: as §1
Background: Tetrazolium dyes change colour on reduction, which living cells bring about.

[2] abbreviates: read-out: Min. Effective conc. for Along with Cell Death.
Where [3] appears, read: read-out: Min. Effective conc. for Mitotic Arrest (>5%).
The mark [4] stands for this setting: read-out: Min. Effective conc. for Polyploidy (≥5%).

SMILES strings stand for the structures. Read-outs that look alike come from different tables or passages of the source.

Regarding `CC1=C(c2nnc(C3CC3)o2)CC(=O)N(Cc2ccc(C)c(F)c2)c2ccccc21` [Compound 20-30], the minimal effective concentration (in test [1] (setting [2]); in test [1] (setting [3]); in test [1] (setting [4]); in the test on RPE-Neo or RPE-MYC cells) was 0.001 to 1 µM throughout.
Consider `C#CC1=C(c2nnc(C3CC3)o2)CC(=O)N(Cc2ccc(C)c(F)c2)c2ccccc21` [Compound 20-32, 4-(5-cyclopropyl-1,3,4-oxadiazol-2-yl)-5-ethynyl-1-(3-fluoro-4-methylbenzyl)-1,3-dihydro-2H-benzo[b]azepin-2-one], for which the minimal effective concentration (in test [1] (setting [2]); in test [1] (setting [3]); in test [1] (setting [4]); with RPE-Neo or RPE-MYC cells) was 0.001 to 1 µM in each case.
`Cc1ccc(CN2C(=O)CC(c3nc[nH]n3)=C(Br)c3ccccc32)cc1F` [Compound 22-1, 5-bromo-1-(3-fluoro-4-methylbenzyl)-4-(1H-1,2,4-triazol-3-yl)-1,3-dihydro-2H-benzo[b]azepin-2-one]: the minimal effective concentration (in test [1] (setting [2]); in test [1] (setting [3]); in test [1] (setting [4]); in the test with RPE-Neo or RPE-MYC cells) was 1 to 10 µM throughout.
On to `Cc1cnc(C2=C(Br)c3ccccc3N(Cc3ccc(C)c(F)c3)C(=O)C2)o1` [Compound 23-1, 5-bromo-1-(3-fluoro-4-methylbenzyl)-4-(5-methyloxazol-2-yl)-1,3-dihydro-2H-benzo[b]azepin-2-one], for which the minimal effective concentration (in test [1] (setting [2]); in test [1] (setting [3]); in test [1] (setting [4]); in the test on RPE-Neo or RPE-MYC cells) was 0.001 to 1 µM throughout.
For the compound `Cc1ccc(CN2C(=S)CC(c3nnc(C4CC4)o3)=C(Br)c3ccccc32)cc1F` [Compound 24-1, 5-bromo-4-(5-cyclopropyl-1,3,4-oxadiazol-2-yl)-1-(3-fluoro-4-methylbenzyl)-1,3-dihydro-2H-benzo[b]azepine-2-thione], the minimal effective concentration (in test [1] (setting [2]); in test [1] (setting [3]); in test [1] (setting [4]); in the test with RPE-Neo or RPE-MYC cells) was 0.001 to 1 µM throughout.
As to `CCOCC1=C(Cl)c2ccccc2N(Cc2ccc(C)c(F)c2)C(=O)C1` [Compound 24-2, 5-chloro-4-(ethoxymethyl)-1-(3-fluoro-4-methylbenzyl)-1,3-dihydro-2H-benzo[b]azepin-2-one], the minimal effective concentration (in test [1] (setting [2]); in test [1] (setting [3]); in test [1] (setting [4]); in the test with RPE-Neo or RPE-MYC cells) was 0.001 to 1 µM each time.
`COC1=C(c2cnco2)CC(=O)N(Cc2ccc(C)c(F)c2)c2ccccc21` [Compound 26-1, 1-(3-fluoro-4-methylbenzyl)-5-methoxy-4-(oxazol-5-yl)-1,3-dihydro-2H-benzo[b]azepin-2-one]: the minimal effective concentration (in test [1] (setting [2]); in test [1] (setting [3]); in test [1] (setting [4]); with RPE-Neo or RPE-MYC cells) was 1 to 10 µM each time.
Regarding `COC1=C(CO)CC(=O)N(Cc2ccc(C)c(F)c2)c2ccccc21` [Compound 27-1, 1-(3-fluoro-4-methylbenzyl)-4-(hydroxymethyl)-5-methoxy-1,3-dihydro-2H-benzo[b]azepin-2-one], the minimal effective concentration (in test [1] (setting [2]); in test [1] (setting [3]); in test [1] (setting [4]); in the test on RPE-Neo or RPE-MYC cells) was 30 to 1000 µM in each case.
Regarding `COCC1=C(OC)c2ccccc2N(Cc2ccc(C)c(F)c2)C(=O)C1` [Compound 28-1, 1-(3-fluoro-4-methylbenzyl)-5-methoxy-4-(methoxymethyl)-1,3-dihydro-2H-benzo[b]azepin-2-one], the minimal effective concentration (in test [1] (setting [2]); in test [1] (setting [3]); in test [1] (setting [4]); with RPE-Neo or RPE-MYC cells) was 1 to 10 µM in each case.
Take `COc1ccc(C(=O)N2CCC(c3nnc(C4CC4)o3)=C(Br)c3ccccc32)cc1F` [Compound 34-2, (5-bromo-4-(5-cyclopropyl-1,3,4-oxadiazol-2-yl)-2,3-dihydro-1H-benzo[b]azepin-1-yl)(3-fluoro-4-methoxyphenyl)methanone]: the minimal effective concentration (in test [1] (setting [2]); in test [1] (setting [3]); in test [1] (setting [4]); in the test on RPE-Neo or RPE-MYC cells) was 0.001 to 1 µM in each case.
Regarding `COc1ccc(S(=O)(=O)N2CCC(c3nnc(C4CC4)o3)=C(Br)c3ccccc32)cc1F` [Compound 34-3, 2-(5-bromo-1-((3-fluoro-4-methoxyphenyl)sulfonyl)-2,3-dihydro-1H-benzo[b]azepin-4-yl)-5-cyclopropyl-1,3,4-oxadiazole], the minimal effective concentration (in test [1] (setting [2]); in test [1] (setting [3]); in test [1] (setting [4]); in the test on RPE-Neo or RPE-MYC cells) was 1 to 10 µM in each case.
As to `Cc1ccc(S(=O)(=O)N2CCC(c3nnc(C4CC4)o3)=C(Br)c3ccccc32)cc1` [Compound 34-4, 2-(5-bromo-1-tosyl-2,3-dihydro-1H-benzo[b]azepin-4-yl)-5-cyclopropyl-1,3,4-oxadiazole], the minimal effective concentration (in test [1] (setting [2]); in test [1] (setting [3]); in test [1] (setting [4]); in the test with RPE-Neo or RPE-MYC cells) was 1 to 10 µM each time.
Take `Cc1ccc(C(C)N2C(=O)CC(c3nnc(C4CC4)o3)=C(Br)c3ccccc32)cc1F` (centres unmarked) [Compound 40]: the minimal effective concentration (in test [1] (setting [2]); in test [1] (setting [3]); in test [1] (setting [4]); in the test on RPE-Neo or RPE-MYC cells) was 1 to 10 µM each time.
Take `COCC1=C(Br)c2ccccc2N(Cc2ccc(C)c(F)c2)C(=O)C1` [Compound 42, 5-bromo-1-(3-fluoro-4-methylbenzyl)-4-(methoxymethyl)-1,3-dihydro-2H-benzo[b]azepin-2-one]: the minimal effective concentration (in test [1] (setting [2]); in test [1] (setting [3]); in test [1] (setting [4]); in the test on RPE-Neo or RPE-MYC cells) was 0.001 to 1 µM each time.
Take `Cc1ccc(CN2C(=O)CC(COC3CCOC3)=C(Br)c3ccccc32)cc1F` (centres unmarked) [Compound 44-1, 5-bromo-1-(3-fluoro-4-methylbenzyl)-4-(((tetrahydrofuran-3-yl)oxy)methyl)-1,3-dihydro-2H-benzo[b]azepin-2-one]: the minimal effective concentration (in test [1] (setting [2]); in test [1] (setting [3]); in test [1] (setting [4]); in the test with RPE-Neo or RPE-MYC cells) was 0.001 to 1 µM throughout.
In the case of `Cc1ccc(CN2C(=O)CC(COC3CCOCC3)=C(Br)c3ccccc32)cc1F` [Compound 44-2, 5-bromo-1-(3-fluoro-4-methylbenzyl)-4-(((tetrahydro-2H-pyran-4-yl)oxy)methyl)-1,3-dihydro-2H-benzo[b]azepin-2-one], the minimal effective concentration (in test [1] (setting [2]); in test [1] (setting [3]); in test [1] (setting [4]); with RPE-Neo or RPE-MYC cells) was 1 to 10 µM in each case.
`Cc1ccc(CN2C(=O)CC(COCC3CCOC3)=C(Br)c3ccccc32)cc1F` (centres unmarked) [Compound 44-3]: the minimal effective concentration was 0.001 to 1 µM in test [1] (setting [2]), 1 to 10 µM in test [1] (setting [3]), 0.001 to 1 µM in test [1] (setting [4]) and 0.001 to 1 µM with RPE-Neo or RPE-MYC cells.
